The source of these data is patent US20070219220A1, “Pyrazolopyrimidinethione Derivatives, Salts and Solvates Thereof, Preparation Methods and Use Thereof” (priority 2003, published 2007).

The subject of this assay is rats with testis removed. Put plainly: Duration of penile erection in rats with testis removed (Example 8). It is filed as in vivo, wistar rats.

The structures appear in SMILES notation.

In the case of `CCCc1nn(C)c2c(=S)[nH]c(-c3cc(S(=O)(=O)N4C[C@@H](C)N[C@@H](C)C4)ccc3OCC)nc12` [Compound (2), 5-[2-ethoxy-5-(cis-3,5-dimethylpiperazin-1-sulfonyl)phenyl]-1-methyl-3-n-propyl-1,6-dihydro-7H-pyrazolo[4,3-d]pyrimidin-7-thione], the Penile swelling time amounted to 679.6 ± 13.2 s (oral 10 mg/kg, at 1 h after administration); 544.7 ± 166.9 s (oral 10 mg/kg, at 3 h after administration); 268.7 ± 146.2 s (oral 10 mg/kg, at 6 h after administration); 98.6 ± 57.9 s (oral 10 mg/kg, at 24 h after administration); 67.7 ± 12.3 s (oral 10 mg/kg, value before administration); 1514.8 ± 258.9 s (oral 20 mg/kg, at 1 h after administration). Moreover, the Penile swelling time was determined as 906.0 ± 406.7 s (oral 20 mg/kg, at 3 h after administration); 275.8 ± 154.2 s (oral 20 mg/kg, at 6 h after administration); 201.0 ± 85.7 s (oral 20 mg/kg, at 24 h after administration); 82.4 ± 26.6 s (oral 20 mg/kg, value before administration); 2187.1 ± 547.8 s (oral 40 mg/kg, at 1 h after administration); 783.0 ± 329.2 s (oral 40 mg/kg, at 3 h after administration). Also, the Penile swelling time worked out at 678.7 ± 221.8 s (oral 40 mg/kg, at 6 h after administration); 194.0 ± 65.1 s (oral 40 mg/kg, at 24 h after administration); 84.0 ± 18.4 s (oral 40 mg/kg, value before administration). Besides, the “how long the penile swelling effect lasts after administration” value (oral 40 mg/kg and 20 mg/kg) is “up to 24 hours”.
